Laboratory results reported in patent US20130059896A1, “5-(1H-PYRAZOL-5-YL)THIAZOLE-BASED COMPOUNDS FOR THE TREATMENT OF DISEASES AND DISORDERS OF THE EYE” (priority 2010, published 2013).

Test system: wild-type C57:129 F2 hybrid mice
Assay: Dexamethasone-induced ocular hypertension model (IOP by TonoLab tonometer)
Format: in vivo, mouse
Description: Twenty eight day mouse Alzet mini-osmotic pumps (DURECT Corp., Cupertino, Calif.) were filled with a solution of water soluble dexamethasone (dex) in PBS (Sigma, St. Louis, Mo.) so that they would release roughly 0.1 mg of dex per day. Once the pumps were filled with the dex, the pumps were allowed to equilibrate in PBS at 37° C. for 60 hours. The equilibrated pumps were surgically placed subcutaneously on the backs of wild-type C57:129 F2 hybrid mice weighing between 25 and 35 grams. Surgical incisions were sutured with 5-0 braided silk (ROBOZ, Gaithersburg, Md.) and treated with antibiotic ointment throughout the entire duration of study. Surgical incisions were glued with TissueMend II (Webster Veterinary, Houston, Tex.). Analgesic (buprenorphine) was given through IP injection the day of surgery and 24 hours after surgery. Intraocular pressure (IOP) was measured on these mice using a TonoLab (Colonial Medical Supply Co., Franconia, N.H.) tonometer. Mice were mildly sedated with isoflurane and topically anesthetized with 0.5% proparacaine (Akorn, Buffalo Grove, Ill.) before IOP measurements were taken. Baseline IOP was measured 1 day prior to mini-pump implantation. After mini-pump implantation, IOP measurements were taken 2-3 times per week for 4 weeks. Pharmacology studies with potential ocular hypotensive compounds were performed between 21 and 28 days after implantation.

With O=C(C[C@@H]1CCCN1)Nc1ncc(-c2cc(C(F)F)nn2-c2c(Cl)cccc2Cl)s1 [Compound 9, (S)—N-(5-(1-(2,6-dichlorophenyl)-3-(difluoromethyl)-1H-pyrazol-5-yl)thiazol-2-yl)-2-(pyrrolidin-2-yl)acetamide] the “Average changes in IOP measured from time of dosing” value (from here on “Average changes in IOP measured”) (3 μg/eye, 0 hr) was 0.00 (0.0), the “Average changes in IOP measured” value (3 μg/eye, 2 hr) was −4.10 (2.6) and the “Average changes in IOP measured” value (3 μg/eye, 4 hr) was −3.81 (3.8). For the same compound, the “Average changes in IOP measured” value (3 μg/eye, 6 hr) was −3.19 (3.2), the “Average changes in IOP measured” value (15 μg/eye, 0 hr) was 0.00 (0.0) and the “Average changes in IOP measured” value (15 μg/eye, 2 hr) was −4.25 (2.7). The “Average changes in IOP measured” value (15 μg/eye, 4 hr) was −4.88 (5.1), the “Average changes in IOP measured” value (15 μg/eye, 6 hr) was −4.88 (4.2) and the “Average changes in IOP measured” value (30 μg/eye, 0 hr) was 0.00 (0.0). The “Average changes in IOP measured” value (30 μg/eye, 2 hr) was −3.33 (4.2), the “Average changes in IOP measured” value (30 μg/eye, 4 hr) was −2.86 (1.1) and the “Average changes in IOP measured” value (30 μg/eye, 6 hr) was −2.29 (2.2). For the same compound, the “Effect in the ocular hypertension model (FIG. 1)” value (dose response, FIG. 1) was “dose dependent effect”.
